Here are results for 39 compounds from US11827629B2, “CDGSH iron sulfur domain 2 activators and use thereof” (National Health Research Institutes, priority 2021, dated 2023).

The assay concerns Cisd2 promoter with firefly luciferase reporter. Put plainly: Cisd2-luciferase reporter assay in HEK293-CISD2 cells. It counts as cell-based. Conditions: Homo sapiens, 24 hours incubation, luciferase luminescence. How it is done:
A typical in vitro screening method includes the following steps: (i) obtaining an initial level of Cisd2 in a batch of human embryonic kidney cells 293 (HEK-293 cells) that express Cisd2, (ii) treating the batch of HEK-293 cells with a compound of this invention, and (iii) analyzing the level of Cisd2 after the treatment, thereby determining the potency of the compound as a Cisd2 activator.
Compounds 1-109 were tested for increasing the level of Cisd2 in human embryonic kidney cells 293 (HEK293), a transfected cell line expressing Cisd2, using the Cisd2-luciferase reporter assay as follows.
The transfected HEK293 cells stably expressed Cisd2 promoter with firefly luciferase reporter (HEK293-CISD2). They were kept in Dulbecco's modified Eagle's medium (DMEM) (Gibco, New York, NY, USA). Culture medium was supplemented with 10% heat-inactivated fetal bovine serum (FBS), 2 mM L-Glutamine, 1 mM sodium pyruvate, 0.1% MEM Non-Essential Amino Acids, 1 ug/ml puromycin and 1% penicillin/streptomycin (HyClone, Logan, UT, USA). The cells were maintained at 37° C. in an incubator (Thermo Fisher Scientific, New York, NY, USA) with an atmosphere of 5% CO2. The stably transfected cells were seeded in 384-well plates at a density of 3×10^3 cells/well. After incubation with tested compounds at 37° C. for 24 hours, ONE-Glo™ Luciferase Assay System (Promega, Madison, WI, USA) was added at room temperature for 5 minutes to detect any luciferase activity. Luminescence intensity was registered using plate reader Victor^2V (PerkinElmer, Boston, MA, USA).
EC50 values in this table are presented in three classes, i.e., A: <1 μM, B: 1 μM-5 μM, and C: 5 μM-10 μM.

SMILES strings stand for the structures.

Regarding `O=C(CSc1nccs1)N1Cc2ccccc2C1` [Compound 1, 1-(1,3-dihydro-2H-isoindol-2-yl)-2-(1,3-thiazol-2-ylsulfanyl)ethanone], the EC50 is < 1 µM.
Consider `COc1ccc2c(c1)CN(C(=O)CSc1nccs1)C2` [Compound 2, 1-(5-methoxy-1,3-dihydro-2H-isoindol-2-yl)-2-(1,3-thiazol-2-ylsulfanyl)ethanone], for which the EC50 was < 1 µM.
With `O=C(CSc1nccs1)N1Cc2ccc(O)cc2C1` [Compound 3, 1-(5-hydroxy-1,3-dihydro-2H-isoindol-2-yl)-2-(1,3-thiazol-2-ylsulfanyl)ethanone] the figure was 1 to 5 µM.
The same measure for `O=C(CSc1nccs1)N1Cc2cccc(F)c2C1` [Compound 4, 1-(4-fluoro-1,3-dihydro-2H-isoindol-2-yl)-2-(1,3-thiazol-2-ylsulfanyl)ethanone]: < 1 µM; for `O=C(CSc1nccs1)N1Cc2ccc(F)cc2C1` [Compound 5, 1-(5-fluoro-1,3-dihydro-2H-isoindol-2-yl)-2-(1,3-thiazol-2-ylsulfanyl)ethanone]: < 1 µM; for `O=C(CSc1nccs1)N1Cc2cc(F)c(F)cc2C1` [Compound 6, 1-(5,6-difluoro-1,3-dihydro-2H-isoindol-2-yl)-2-(1,3-thiazol-2-ylsulfanyl)ethanone]: 1 to 5 µM.
With `O=C(CSc1nccs1)N1Cc2ccc(Cl)cc2C1` [Compound 7, 1-(5-chloro-1,3-dihydro-2H-isoindol-2-yl)-2-(1,3-thiazol-2-ylsulfanyl)ethanone] the figure was < 1 µM; with `O=C(CSc1nccs1)N1Cc2cc(Cl)c(Cl)cc2C1` [Compound 8, 1-(5,6-dichloro-1,3-dihydro-2H-isoindol-2-yl)-2-(1,3-thiazol-2-ylsulfanyl)ethanone], 1 to 5 µM; with `COC(=O)c1ccc2c(c1)CN(C(=O)CSc1nccs1)C2` [Compound 9, methyl 2-[(1,3-thiazol-2-ylsulfanyl)acetyl]-2,3-dihydro-1H-isoindole-5-carboxylate], < 1 µM.
Regarding `O=C(CSc1nccs1)N1Cc2ccc([N+](=O)[O-])cc2C1` [Compound 10, 1-(5-nitro-1,3-dihydro-2H-isoindol-2-yl)-2-(1,3-thiazol-2-ylsulfanyl)ethanone], the EC50 lay in the range of 1 to 5 µM.
The same measure for `Cc1cnc(SCC(=O)N2Cc3ccccc3C2)s1` [Compound 11, 1-(1,3-dihydro-2H-isoindol-2-yl)-2-[(5-methyl-1,3-thiazol-2-yl)sulfanyl]ethanone]: < 1 µM; for `Cc1cnc(SCC(=O)N2Cc3ccc(F)cc3C2)s1` [Compound 12, 1-(5-fluoro-1,3-dihydro-2H-isoindol-2-yl)-2-[(5-methyl-1,3-thiazol-2-yl)sulfanyl]ethanone]: < 1 µM; for `O=C(CSc1ccccn1)N1Cc2ccccc2C1` [Compound 13, 1-(1,3-dihydro-2H-isoindol-2-yl)-2-(pyridin-2-ylsulfanyl)ethanone]: < 1 µM.
In the case of `COc1ccc2c(c1)CN(C(=O)CSc1ccccn1)C2` [Compound 14, 1-(5-methoxy-1,3-dihydro-2H-isoindol-2-yl)-2-(pyridin-2-ylsulfanyl)ethanone], the EC50 is < 1 µM.
With `Nc1ccc2c(c1)CN(C(=O)CSc1ccccn1)C2` [Compound 15, 1-(5-amino-1,3-dihydro-2H-isoindol-2-yl)-2-(pyridin-2-ylsulfanyl)ethanone] the figure was 1 to 5 µM; with `O=C(CSc1ccccn1)N1Cc2ccc(F)cc2C1` [Compound 16, 1-(5-fluoro-1,3-dihydro-2H-isoindol-2-yl)-2-(pyridin-2-ylsulfanyl)ethanone], < 1 µM.
With `Cc1cccc(SCC(=O)N2Cc3ccccc3C2)n1` [Compound 17, 1-(1,3-dihydro-2H-isoindol-2-yl)-2-[(6-methylpyridin-2-yl)sulfanyl]ethanone] the figure was 1 to 5 µM.
With `O=C(CSc1cccc(Cl)n1)N1Cc2ccccc2C1` [Compound 18, 2-[(6-chloropyridin-2-yl)sulfanyl]-1-(1,3-dihydro-2H-isoindol-2-yl)ethanone] the figure was 1 to 5 µM.
Consider `Cc1nnc(SCC(=O)N2Cc3ccccc3C2)s1` [Compound 19, 1-(1,3-dihydro-2H-isoindol-2-yl)-2-[(5-methyl-1,3,4-thiadiazol-2-yl)sulfanyl]ethanone], for which the EC50 lay in the range of 1 to 5 µM.
`Nc1nnc(SCC(=O)N2Cc3ccccc3C2)s1` [Compound 20, 2-[(5-amino-1,3,4-thiadiazol-2-yl)sulfanyl]-1-(1,3-dihydro-2H-isoindol-2-yl)ethanone]: the EC50 was in the range of 1 to 5 µM.
With `O=C(CSc1ncc[nH]1)N1Cc2ccccc2C1` [Compound 21, 1-(1,3-dihydro-2H-isoindol-2-yl)-2-(1H-imidazol-2-ylsulfanyl)ethanone] the figure was 5 to 10 µM.
The compound `O=C(CSc1ncccn1)N1Cc2ccccc2C1` [Compound 22, 1-(1,3-dihydro-2H-isoindol-2-yl)-2-(pyrimidin-2-ylsulfanyl)ethanone] displayed an EC50 of 5 to 10 µM.
With `O=C(CCSc1nccs1)N1Cc2ccccc2C1` [Compound 23, 1-(1,3-dihydro-2H-isoindol-2-yl)-3-(1,3-thiazol-2-ylsulfanyl)propan-1-one] the figure was < 1 µM; with `O=C(CCSc1ccccn1)N1Cc2ccc(F)cc2C1` [Compound 24, 1-(5-fluoro-1,3-dihydro-2H-isoindol-2-yl)-3-(pyridin-2-ylsulfanyl)propan-1-one], < 1 µM; with `O=C(NCCSc1ccccn1)N1Cc2ccccc2C1` [Compound 25, N-[2-(pyridin-2-ylsulfanyl)ethyl]-1,3-dihydro-2H-isoindole-2-carboxamide], 1 to 5 µM.
The same measure for `O=C(N1Cc2ccc(F)cc2C1)C(F)(F)Sc1ccccn1` [Compound 26, 2,2-difluoro-1-(5-fluoro-1,3-dihydro-2H-isoindol-2-yl)-2-(pyridin-2-ylsulfanyl)ethanone]: < 1 µM; for `O=C(N1Cc2ccccc2C1)C(F)(F)CSc1ccccn1` [Compound 27, 1-(1,3-dihydro-2H-isoindol-2-yl)-2,2-difluoro-3-(pyridin-2-ylsulfanyl)propan-1-one]: 1 to 5 µM; for `COc1ccc2c(c1)CN(C(=O)CS(=O)(=O)c1nccs1)C2` [Compound 29, 1-(5-methoxy-1,3-dihydro-2H-isoindol-2-yl)-2-(1,3-thiazol-2-ylsulfonyl)ethanone]: < 1 µM.
The same measure for `O=C(CS(=O)(=O)c1nccs1)N1Cc2cccc(F)c2C1` [Compound 30, 1-(4-fluoro-1,3-dihydro-2H-isoindol-2-yl)-2-(1,3-thiazol-2-ylsulfonyl)ethanone]: < 1 µM; for `O=C(CS(=O)(=O)c1nccs1)N1Cc2ccc(F)cc2C1` [Compound 31, 1-(5-fluoro-1,3-dihydro-2H-isoindol-2-yl)-2-(1,3-thiazol-2-ylsulfonyl)ethanone]: < 1 µM.
On to `O=C(CS(=O)(=O)c1nccs1)N1Cc2cc(F)c(F)cc2C1` [Compound 32, 1-(5,6-difluoro-1,3-dihydro-2H-isoindol-2-yl)-2-(1,3-thiazol-2-ylsulfonyl)ethanone], for which the EC50 is < 1 µM.
The same measure for `O=C(CS(=O)(=O)c1nccs1)N1Cc2ccc(Cl)cc2C1` [Compound 33, 1-(5-chloro-1,3-dihydro-2H-isoindol-2-yl)-2-(1,3-thiazol-2-ylsulfonyl)ethanone]: < 1 µM.
For `O=C(CS(=O)(=O)c1nccs1)N1Cc2cc(Cl)c(Cl)cc2C1` [Compound 34, 1-(5,6-dichloro-1,3-dihydro-2H-isoindol-2-yl)-2-(1,3-thiazol-2-ylsulfonyl)ethanone], the EC50 was < 1 µM.
Turning to `COC(=O)c1ccc2c(c1)CN(C(=O)CS(=O)(=O)c1nccs1)C2` [Compound 35, methyl 2-[(1,3-thiazol-2-ylsulfonyl)acetyl]-2,3-dihydro-1H-isoindole-5-carboxylate], the EC50 was < 1 µM.
With `O=C(CS(=O)(=O)c1nccs1)N1Cc2ccc([N+](=O)[O-])cc2C1` [Compound 36, 1-(5-nitro-1,3-dihydro-2H-isoindol-2-yl)-2-(1,3-thiazol-2-ylsulfonyl)ethanone] the figure was 1 to 5 µM; with `Cc1cnc(S(=O)(=O)CC(=O)N2Cc3ccccc3C2)s1` [Compound 37, 1-(1,3-dihydro-2H-isoindol-2-yl)-2-[(5-methyl-1,3-thiazol-2-yl)sulfonyl]ethanone], 5 to 10 µM; with `O=C(CS(=O)(=O)c1ccccn1)N1Cc2ccccc2C1` [Compound 38, 1-(1,3-dihydro-2H-isoindol-2-yl)-2-(pyridin-2-ylsulfonyl)ethanone], < 1 µM.
With `COc1ccc2c(c1)CN(C(=O)CS(=O)(=O)c1ccccn1)C2` [Compound 39, 1-(5-methoxy-1,3-dihydro-2H-isoindol-2-yl)-2-(pyridin-2-ylsulfonyl)ethanone] the figure was < 1 µM; with `O=C(CS(=O)(=O)c1ccccn1)N1Cc2ccc(F)cc2C1` [Compound 40, 1-(5-fluoro-1,3-dihydro-2H-isoindol-2-yl)-2-(pyridin-2-ylsulfonyl)ethanone], < 1 µM.
